Patent US5773421A, “Antifungal fusacandins” (Abbott Laboratories, priority 1995, dated 1998)
In brackets after ≈: the same amount, converted by molar mass.

Columns and labels:
Experiment in all cases: MIC by agar dilution method
Assay type in all cases: cell-based
Candida albicans 579a = conditions: Table 6c; II Candida albicans 579a; agar dilution; read-out: MIC II
Experimental: (§1) Minimal inhibitory concentrations (MICs) were determined by an agar dilution method. The test compounds were serially diluted in MeOH and 0.2 mL portions were mixed with 20 mL of molten, cooled Sabouraud dextrose agar (Difco). Yeast cell inoculum was prepared by growing cultures on Sabouraud dextrose agar for 18 hours at 32° C. and suspending the cells in phosphate buffered saline. Filamentous fungi were grown under the same conditions for 4 days to obtain spores. The inoculum level for all cultures was adjusted to 10^4 cells using a Petroff-Hauser cell counter. The glutarimide antifungal compounds cycloheximide or amphotericin B were used as a control. Inoculated test plates were incubated at 32° C. and examined after 20 hours.

[1] = system: Candida albicans ATCC 10231; conditions: ATCC10231; Table 6c; I Candida albicans ATCC 10231; agar dilution; read-out: MIC I
Experimental: as §1

[2] = system: Candida albicans ATCC 38247; conditions: ATCC38247; Table 6c; IV Candida albicans ATCC 38247; agar dilution; read-out: MIC IV
Experimental: as §1

[3] = system: Candida albicans ATCC 62376; conditions: ATCC62376; Table 6c; V Candida albicans ATCC 62376; agar dilution; read-out: MIC V
Experimental: as §1

Candida albicans CCH 442 = conditions: CCH442; Table 6c, 3rd value column (head printed II); III Candida albicans CCH 442; agar dilution; read-out: MIC II
Experimental: as §1

`CCCCC/C=C/C=C/[C@@H](O)C/C=C/C=C/C(=O)O[C@@H]1[C@@H](O)[C@H](c2c(O)cc(O)cc2CO)O[C@H](CO)[C@H]1O[C@@H]1O[C@H](COC(=O)c2ccc(-c3ccccc3OC)cc2)[C@H](O)[C@H](O)[C@H]1O[C@@H]1O[C@H](CO)[C@H](O)[C@H](O)[C@H]1O` [Example 40] gave an MIC (Candida albicans 579a) of 1.56 µg/mL (≈ 1.44 µM), an MIC [1] of 6.25 µg/mL (≈ 5.77 µM) and an MIC [2] of 6.25 µg/mL (≈ 5.77 µM). For the same compound, the MIC [3] was 1.56 µg/mL (≈ 1.44 µM) and the MIC (Candida albicans CCH 442) was 6.25 µg/mL (≈ 5.77 µM).

For `CCCCC/C=C/C=C/[C@@H](O)C/C=C/C=C/C(=O)O[C@@H]1[C@@H](O)[C@H](c2c(O)cc(O)cc2CO)O[C@H](CO)[C@H]1O[C@@H]1O[C@H](COC(=O)c2ccc3ccccc3c2)[C@H](O)[C@H](O)[C@H]1O[C@@H]1O[C@H](CO)[C@H](O)[C@H](O)[C@H]1O` [Example 19], the MIC (Candida albicans 579a) was 0.78 µg/mL (≈ 0.759 µM), the MIC [1] was 3.12 µg/mL (≈ 3.04 µM) and the MIC [2] was 0.78 µg/mL (≈ 0.759 µM). The MIC [3] was 3.12 µg/mL (≈ 3.04 µM) and the MIC (Candida albicans CCH 442) was 1.56 µg/mL (≈ 1.52 µM).

For `CCCCC/C=C/C=C/[C@@H](O)C/C=C/C=C/C(=O)O[C@@H]1[C@@H](O)[C@H](c2c(O)cc(O)cc2CO)O[C@H](CO)[C@H]1O[C@@H]1O[C@H](COC(=O)CCC)[C@H](O)[C@H](O)[C@H]1O[C@@H]1O[C@H](CO)[C@H](O)[C@H](O)[C@H]1O` [Example 12], the MIC (Candida albicans 579a) was 50 µg/mL (≈ 53 µM), the MIC [1] was 50 µg/mL (≈ 53 µM) and the MIC [2] was 25 µg/mL (≈ 26.5 µM). For the same compound, the MIC [3] was 50 µg/mL (≈ 53 µM) and the MIC (Candida albicans CCH 442) was 25 µg/mL (≈ 26.5 µM).

With `CCCCC/C=C/C=C/[C@@H](O)C/C=C/C=C/C(=O)O[C@@H]1[C@@H](O)[C@H](c2c(O)cc(O)cc2CO)O[C@H](CO)[C@H]1O[C@@H]1O[C@H](COC(=O)/C=C/c2ccccc2)[C@H](O)[C@H](O)[C@H]1O[C@@H]1O[C@H](CO)[C@H](O)[C@H](O)[C@H]1O` [Example 16] the MIC (Candida albicans 579a) was 12.5 µg/mL (≈ 12.5 µM), the MIC [1] was 12.5 µg/mL (≈ 12.5 µM) and the MIC [2] was 6.25 µg/mL (≈ 6.23 µM). For the same compound, the MIC [3] was 12.5 µg/mL (≈ 12.5 µM) and the MIC (Candida albicans CCH 442) was 12.5 µg/mL (≈ 12.5 µM).

`CCCCC/C=C/C=C/[C@@H](O)C/C=C/C=C/C(=O)O[C@@H]1[C@@H](O)[C@H](c2c(O)cc(O)cc2CO)O[C@H](CO)[C@H]1O[C@@H]1O[C@H](COC(=O)c2ccc(-c3ccc(CC)cc3)cc2)[C@H](O)[C@H](O)[C@H]1O[C@@H]1O[C@H](CO)[C@H](O)[C@H](O)[C@H]1O` [Example 21] was tested, and the MIC (Candida albicans 579a) was 0.2 µg/mL (≈ 0.185 µM), the MIC [1] was 0.78 µg/mL (≈ 0.721 µM) and the MIC [2] was 0.78 µg/mL (≈ 0.721 µM). It also gave an MIC [3] of 0.39 µg/mL (≈ 0.361 µM) and an MIC (Candida albicans CCH 442) of 0.78 µg/mL (≈ 0.721 µM).

Compound `CCCCC/C=C/C=C/[C@@H](O)C/C=C/C=C/C(=O)O[C@@H]1[C@@H](O)[C@H](c2c(O)cc(O)cc2CO)O[C@H](CO)[C@H]1O[C@@H]1O[C@H](COC(=O)c2ccc(-c3ccc(OCc4ccccc4)cc3)cc2)[C@H](O)[C@H](O)[C@H]1O[C@@H]1O[C@H](CO)[C@H](O)[C@H](O)[C@H]1O` [Example 37] has an MIC (Candida albicans 579a) of 1.56 µg/mL (≈ 1.35 µM), an MIC [1] of 1.56 µg/mL (≈ 1.35 µM) and an MIC [2] of 3.12 µg/mL (≈ 2.69 µM). It also gave an MIC [3] of 1.56 µg/mL (≈ 1.35 µM) and an MIC (Candida albicans CCH 442) of 3.12 µg/mL (≈ 2.69 µM).

In the case of `CCCCC/C=C/C=C/[C@@H](O)C/C=C/C=C/C(=O)O[C@@H]1[C@@H](O)[C@H](c2c(O)cc(O)cc2CO)O[C@H](CO)[C@H]1O[C@@H]1O[C@H](COC(=O)c2ccc(-c3ccc4c(c3)OCO4)cc2)[C@H](O)[C@H](O)[C@H]1O[C@@H]1O[C@H](CO)[C@H](O)[C@H](O)[C@H]1O` [Example 36], the MIC (Candida albicans 579a) was 0.78 µg/mL (≈ 0.711 µM), the MIC [1] was 1.56 µg/mL (≈ 1.42 µM) and the MIC [2] was 1.56 µg/mL (≈ 1.42 µM). For the same compound, the MIC [3] was 1.56 µg/mL (≈ 1.42 µM) and the MIC (Candida albicans CCH 442) was 1.56 µg/mL (≈ 1.42 µM).

Compound `CCCCC/C=C/C=C/[C@@H](O)C/C=C/C=C/C(=O)O[C@@H]1[C@@H](O)[C@H](c2c(O)cc(O)cc2CO)O[C@H](CO)[C@H]1O[C@@H]1O[C@H](COC(=O)c2ccc(-c3ccc(O)cc3)cc2)[C@H](O)[C@H](O)[C@H]1O[C@@H]1O[C@H](CO)[C@H](O)[C@H](O)[C@H]1O` [Example 41] has an MIC (Candida albicans 579a) of 6.25 µg/mL (≈ 5.85 µM), an MIC [1] of 12.5 µg/mL (≈ 11.7 µM) and an MIC [2] of 6.25 µg/mL (≈ 5.85 µM). It also gave an MIC [3] of 12.5 µg/mL (≈ 11.7 µM) and an MIC (Candida albicans CCH 442) of 6.25 µg/mL (≈ 5.85 µM).

`CCCCC/C=C/C=C/[C@@H](O)C/C=C/C=C/C(=O)O[C@@H]1[C@@H](O)[C@H](c2c(O)cc(O)cc2CO)O[C@H](CO)[C@H]1O[C@@H]1O[C@H](COC(=O)Cc2ccc3ccccc3c2)[C@H](O)[C@H](O)[C@H]1O[C@@H]1O[C@H](CO)[C@H](O)[C@H](O)[C@H]1O` [Example 22] was tested, and the MIC (Candida albicans 579a) was 3.12 µg/mL (≈ 3 µM), the MIC [1] was 6.25 µg/mL (≈ 6 µM) and the MIC [2] was 12.5 µg/mL (≈ 12 µM). The MIC [3] was 6.25 µg/mL (≈ 6 µM) and the MIC (Candida albicans CCH 442) was 3.12 µg/mL (≈ 3 µM).

With `CCCCC/C=C/C=C/C(=O)OC[C@H]1O[C@@H](O[C@H]2[C@H](OC(=O)/C=C/C=C/C[C@H](O)/C=C/C=C/CCCCC)[C@@H](O)[C@H](c3c(O)cc(O)cc3CO)O[C@@H]2CO)[C@H](O[C@@H]2O[C@H](CO)[C@H](O)[C@H](O)[C@H]2O)[C@@H](O)[C@H]1O` [Example 11] the MIC (Candida albicans 579a) was 0.78 µg/mL (≈ 0.762 µM), the MIC [1] was 1.56 µg/mL (≈ 1.52 µM) and the MIC [2] was 1.56 µg/mL (≈ 1.52 µM). The MIC [3] was 3.12 µg/mL (≈ 3.05 µM) and the MIC (Candida albicans CCH 442) was 1.56 µg/mL (≈ 1.52 µM).
